Results reported in patent US10045962B2 (priority 2014, dated 2018).
Counter-ions that a name gives are not always drawn.

How the values were obtained:
T24 = conditions: 10 μM, 72 hours
Procedure: (§1) These cells were seeded at an amount of 2×10^6 cells, and then added with the culture medium for cultivating the cells to a volume of 10 mL, followed by cultivation for 2 to 3 days. After counting the cell number, these cells were respectively plated in a 96-well plate, in which each well has a fixed cell number of 3000 and a volume of 100 μL.
(§2) After removing the culture medium in the 96-well plate, each well was added with 100 μL of 10 μM commercial drug and then placed for 72 hours. Thereafter, each well was further added with 100 μL of a diluted WST-1 solution (the dilution ratio for the culture medium: WST-1 stock solution (wt/wt) is 9:1).
(§3) Each cancer cell inhibitory experiment was repeated for 4 times, followed by calculation of the mean values thereof, which were shown in the following tables.

[1] = tested on: HeLa (cervix adenocarcinoma); conditions: 10 μM, 72 hours
Procedure: as §1, §2

[2] = tested on: 786-O (renal adenocarcinoma); conditions: 10 μM, 72 hours
Procedure: as §1, §2

[3] = tested on: PC-3 (prostate adenocarcinoma); conditions: 10 μM, 72 hours
Procedure: as §1, §2, §3

[4] = tested on: MCF-7 (mammary gland, adenocarcinoma); conditions: 10 μM, 72 hours
Procedure: as §1, §2

NIH-OVCAR-3 = conditions: 10 μM, 72 hours
Procedure: as §1, §2

[5] = tested on: AGS (gastric adenocarcinoma); conditions: 10 μM, 72 hours
Procedure: as §1, §2, §3

[6] = tested on: MKN-45 (gastric adenocarcinoma); conditions: 10 μM, 72 hours
Procedure: as §1, §2, §3

[7] = tested on: HepG2 (hepatocellular carcinoma); conditions: 10 μM, 72 hours
Procedure: as §1, §2, §3

[8] = tested on: Hep3B (hepatocellular carcinoma); conditions: 10 μM, 72 hours
Procedure: as §1, §2, §3

[9] = tested on: HCT116-wt (colorectal carcinoma); conditions: 10 μM, 72 hours
Procedure: as §1, §2, §3

AsPC-1 = conditions: 10 μM, 72 hours
Procedure: as §1, §2, §3

BxPC-3 = conditions: 10 μM, 72 hours
Procedure: as §1, §2, §3

[10] = tested on: SAS (tongue squamouscell carcinoma); conditions: 10 μM, 72 hours
Procedure: as §1, §2, §3

U2OS = conditions: 10 μM, 72 hours
Procedure: as §1, §2

[11] = tested on: BCC (basal cell carcinoma); conditions: 10 μM, 72 hours
Procedure: as §1, §2

[12] = tested on: BEAS-2B (lung epithelial); conditions: 10 μM, 72 hours
Procedure: as §1, §2
(§4) Each cell inhibitory experiment was repeated for 4 times, followed by calculation of the mean values thereof, which were shown in the following tables.

Lung cancer = conditions: summary over cell lines, 10 μM, 72 hours
Procedure: as §1, §2

Bladder cancer = conditions: summary over cell lines, 10 μM, 72 hours
Procedure: as §1, §2

Cervical cancer = conditions: summary over cell lines, 10 μM, 72 hours
Procedure: as §1, §2

Prostate cancer = conditions: summary over cell lines, 10 μM, 72 hours
Procedure: as §1, §2

Ovarian cancer = conditions: summary over cell lines, 10 μM, 72 hours
Procedure: as §1, §2

Gastric cancer = conditions: summary over cell lines, 10 μM, 72 hours
Procedure: as §1, §2

Liver cancer = conditions: summary over cell lines, 10 μM, 72 hours
Procedure: as §1, §2

Colorectal cancer = conditions: summary over cell lines, 10 μM, 72 hours
Procedure: as §1, §2

Pancreatic cancer = conditions: summary over cell lines, 10 μM, 72 hours
Procedure: as §1, §2

Skin cancer = conditions: summary over cell lines, 10 μM, 72 hours
Procedure: as §1, §2

[13] = BEAS-2B normal lung epithelial cells, single experiment

Procedure for normal cells: as §1, §2, §4

CNCC[C@H](Oc1cccc2ccccc12)c1cccs1 [duloxetine HCl, Duloxetine hydrochloride]
Mean (survival rate) (T24; mean of 4 experiments): 85.2%
survival rate T24-1-30 min (T24; single experiment): 81.7%
survival rate T24-2-20 min (T24; single experiment): 90.6%
survival rate T24-3-20 min (T24; single experiment): 71.4%
survival rate T24-4-20 min (T24; single experiment): 97.2%
Mean survival rate (%) ([1]; mean of 4 experiments): 33.8%
survival rate 0524-10 min ([1]; single experiment): 27.7%
survival rate 0526-10 min ([1]; single experiment): 29.9%
survival rate 0529-10 min ([1]; single experiment): 25.4%
survival rate 0531-10 min ([1]; single experiment): 52.1%
Mean survival rate (%) ([2]; 786-O, mean of 4 experiments): 67.3%
survival rate 0524-10 min ([2]; 786-O, single experiment): 60.4%
survival rate 0526-10 min ([2]; 786-O, single experiment): 89.7%
survival rate 0529-10 min ([2]; 786-O, single experiment): 49.0%
survival rate 0531-10 min ([2]; 786-O, single experiment): 70.1%
Survival rate (%) ([2]; Renal cancer (786-O), summary table): 67.3%
Mean survival rate (%) ([3]; mean of 4 experiments): 45.6%
survival rate PC-3-0524-10 min ([3]; single experiment): 45.0%
survival rate PC-3-0526-10 min ([3]; single experiment): 70.9%
survival rate PC-3-0529-10 min ([3]; single experiment): 41.4%
survival rate PC-3-0531-10 min ([3]; single experiment): 25.1%
Mean survival rate (%) ([4]; mean of 4 experiments): 31.2%
survival rate 0612-10 min ([4]; single experiment): 29.0%
survival rate 0614-10 min ([4]; single experiment): 37.3%
survival rate 0616-10 min ([4]; single experiment): 30.0%
survival rate 0619-10 min ([4]; single experiment): 28.5%
Mean survival rate (%) (NIH-OVCAR-3; mean of 4 experiments): 68.2%
survival rate 7-3-30 min (NIH-OVCAR-3; single experiment): 64.8%
survival rate 7-4-30 min (NIH-OVCAR-3; single experiment): 74.6%
survival rate 7-7-30 min (NIH-OVCAR-3; single experiment): 78.5%
survival rate -4-30 min (NIH-OVCAR-3; single experiment): 55.0%
Mean survival rate (%) ([5]; mean of 4 experiments): 23.5%
survival rate 0510-10 min ([5]; single experiment): 25.0%
survival rate 0512-10 min ([5]; single experiment): 15.9%
survival rate 0515-10 min ([5]; single experiment): 37.3%
survival rate 0517-10 min ([5]; single experiment): 15.8%
Mean (survival rate) ([6]; mean of 4 experiments): 59.7%
survival rate 0510-10 min ([6]; single experiment): 59.5%
survival rate 0512-10 min ([6]; single experiment): 75.3%
survival rate 0515-10 min ([6]; single experiment): 46.0%
survival rate 0517-10 min ([6]; single experiment): 57.9%
Mean survival rate (%) ([7]; mean of 4 experiments): 34.0%
survival rate 0524-20 min ([7]; single experiment): 14.8%
survival rate 0526-20 min ([7]; single experiment): 44.7%
survival rate 0529-20 min ([7]; single experiment): 37.7%
survival rate 0531-20 min ([7]; single experiment): 38.9%
Mean (survival rate) ([8]; mean of 4 experiments): 47.9%
survival rate 0612-20 min ([8]; single experiment): 41.4%
survival rate 0614-20 min ([8]; single experiment): 53.3%
survival rate 0616-20 min ([8]; single experiment): 36.2%
survival rate 0619-20 min ([8]; single experiment): 60.6%
Mean survival rate (%) ([9]; mean of 4 experiments): 77.1%
survival rate 0602-30 min ([9]; single experiment): 52.1%
survival rate 0605-10 min ([9]; single experiment): 108.8%
survival rate 0607-10 min ([9]; single experiment): 127.4%
survival rate 0609-10 min ([9]; single experiment): 20.3%
Mean survival rate (%) (AsPC-1; mean of 4 experiments): 60.3%
survival rate 1-4-30 min (AsPC-1; single experiment): 61.7%
survival rate 1-7-3-30 min (AsPC-1; single experiment): 75.7%
survival rate 1-7-4-30 min (AsPC-1; single experiment): 78.0%
survival rate 1-7-7-30 min (AsPC-1; single experiment): 26.0%
Mean survival rate (%) (BxPC-3; mean of 4 experiments): 54.0%
survival rate 3-4-30 min (BxPC-3; single experiment): 72.4%
survival rate 3-7-3-30 min (BxPC-3; single experiment): 62.1%
survival rate 3-7-4-30 min (BxPC-3; single experiment): 58.8%
survival rate 3-7-7-30 min (BxPC-3; single experiment): 22.7%
Survival rate (%) ([10]; Lingual cancer (SAS), summary table): 82.44%
Mean survival rate (%) ([10]; SAS, mean of 4 experiments): 82.4%
survival rate 6-26-10 min ([10]; SAS, single experiment): 45.7%
survival rate 6-28-10 min ([10]; SAS, single experiment): 88.9%
survival rate 6-30-10 min ([10]; SAS, single experiment): 96.2%
survival rate 7-3-10 min ([10]; SAS, single experiment): 98.9%
Survival rate (%) (U2OS; Osteosarcoma (U2OS), summary table): 35.09%
Mean survival rate (%) (U2OS; U2OS, mean of 4 experiments): 35.1%
survival rate 6-26-10 min (U2OS; U2OS, single experiment): 26.6%
survival rate 6-28-10 min (U2OS; U2OS, single experiment): 21.5%
survival rate 6-30-10 min (U2OS; U2OS, single experiment): 56.6%
survival rate 7-3-10 min (U2OS; U2OS, single experiment): 35.6%
Mean (survival rate) ([11]; mean of 3 experiments): 48.1%
survival rate 0602-30 min ([11]; single experiment): 43.9%
survival rate 0605-10 min ([11]; single experiment): 31.3%
survival rate 0607-10 min ([11]; single experiment): 69.0%
Mean survival rate (%) ([12]; BEAS-2B normal lung epithelial cells, mean of 4 experiments): 72.5%
survival rate 0510-10 min [12, 13]: 59.5%
survival rate 0512-10 min [12, 13]: 76.3%
survival rate 0515-10 min [12, 13]: 74.7%
survival rate 0517-10 min [12, 13]: 79.6%
Survival rate (%) ([12]; Lung epithelial cells (BEAS-2B normal cells), summary table): 72.50%
Survival rate (%) (Lung cancer): 36.87%
Survival rate (%) (Bladder cancer): 67.2%
Survival rate (%) (Cervical cancer): 36.76%
Survival rate (%) (Prostate cancer): 59.23%
Survival rate (%) (Ovarian cancer): 51.5%
Survival rate (%) (Gastric cancer): 41.6%
Survival rate (%) (Liver cancer): 40.95%
Survival rate (%) (Colorectal cancer): 62.21%
Survival rate (%) (Pancreatic cancer): 57.2%
Survival rate (%) (Skin cancer): 39.79%
cytotoxicity to the normal cells (normal cells; normal cells): little or no cytotoxicity
selective effect between normal cells and tumor cells (normal cells; normal cells versus tumor cells): selective effect
